Broadly, the IC50 is the concentration needed to halve the response being measured.

Where two headings read alike, the source gives them in different places. Where only a bound is given, the exact number is not on record here.

The target of test [1] is T1, full length N-terminally FLAG-tagged PARP1 (Homo sapiens, UniProt P09874). The experiment in a line: PARP1 biochemical DELFIA assay (auto-PARylation). Also noted: recombinant full length human N-terminally FLAG-tagged PARP1.
In test [2] the target is T1, full length N-terminally FLAG-tagged PARP1. The experiment in a line: PARP1 probe displacement HTRF assay. To be noted: for Selectivity: PARP1 over PARP2, ratio Kd (PARP2)/Kd (PARP1); for Kd: binned Kd.
The target of test [3] is T2, N-terminally FLAG-tagged PARP2 (amino acids 1-583) (Homo sapiens, UniProt Q9UGN5).
T2 construct: N-terminally FLAG-tagged PARP2 (amino acids 1-583)
Kind of test: PARP2 probe displacement HTRF assay. Format: binding. To be noted: binned Kd. As to the method: Data analysis was performed identical as for PARP1.
Background: Time-resolved FRET reads energy transfer from a long-lived donor to a nearby acceptor.

Where [4] appears, read: binned IC50, biochemical auto-PARylation assay.
Where [5] appears, read: read-out: PARP1 HTRF, probe displacement HTRF.
Where [6] appears, read: binned IC50, PARP1 biochemical DELFIA assay.
The mark [7] stands for this setting: read-out: PARP1 HTRF, PARP1 probe displacement HTRF.
Setting [8] is: PARP1 HTRF, PARP1 probe displacement HTRF.

T2 sequence (Q9UGN5 whole entry, the tested form may be a part): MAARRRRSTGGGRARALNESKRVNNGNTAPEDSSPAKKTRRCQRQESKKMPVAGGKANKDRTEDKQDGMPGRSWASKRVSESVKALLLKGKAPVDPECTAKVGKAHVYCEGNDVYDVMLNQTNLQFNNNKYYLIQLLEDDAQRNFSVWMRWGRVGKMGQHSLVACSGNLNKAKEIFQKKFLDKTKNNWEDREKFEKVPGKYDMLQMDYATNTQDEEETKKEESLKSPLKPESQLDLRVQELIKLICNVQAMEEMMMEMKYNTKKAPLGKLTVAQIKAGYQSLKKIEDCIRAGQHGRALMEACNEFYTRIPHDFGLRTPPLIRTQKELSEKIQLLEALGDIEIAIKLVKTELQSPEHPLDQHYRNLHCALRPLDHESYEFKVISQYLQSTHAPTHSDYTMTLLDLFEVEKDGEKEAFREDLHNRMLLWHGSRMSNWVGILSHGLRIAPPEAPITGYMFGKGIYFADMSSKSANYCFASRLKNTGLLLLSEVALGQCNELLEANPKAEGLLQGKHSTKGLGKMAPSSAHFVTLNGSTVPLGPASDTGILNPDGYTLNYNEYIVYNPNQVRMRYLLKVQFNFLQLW
T1 sequence (P09874 whole entry): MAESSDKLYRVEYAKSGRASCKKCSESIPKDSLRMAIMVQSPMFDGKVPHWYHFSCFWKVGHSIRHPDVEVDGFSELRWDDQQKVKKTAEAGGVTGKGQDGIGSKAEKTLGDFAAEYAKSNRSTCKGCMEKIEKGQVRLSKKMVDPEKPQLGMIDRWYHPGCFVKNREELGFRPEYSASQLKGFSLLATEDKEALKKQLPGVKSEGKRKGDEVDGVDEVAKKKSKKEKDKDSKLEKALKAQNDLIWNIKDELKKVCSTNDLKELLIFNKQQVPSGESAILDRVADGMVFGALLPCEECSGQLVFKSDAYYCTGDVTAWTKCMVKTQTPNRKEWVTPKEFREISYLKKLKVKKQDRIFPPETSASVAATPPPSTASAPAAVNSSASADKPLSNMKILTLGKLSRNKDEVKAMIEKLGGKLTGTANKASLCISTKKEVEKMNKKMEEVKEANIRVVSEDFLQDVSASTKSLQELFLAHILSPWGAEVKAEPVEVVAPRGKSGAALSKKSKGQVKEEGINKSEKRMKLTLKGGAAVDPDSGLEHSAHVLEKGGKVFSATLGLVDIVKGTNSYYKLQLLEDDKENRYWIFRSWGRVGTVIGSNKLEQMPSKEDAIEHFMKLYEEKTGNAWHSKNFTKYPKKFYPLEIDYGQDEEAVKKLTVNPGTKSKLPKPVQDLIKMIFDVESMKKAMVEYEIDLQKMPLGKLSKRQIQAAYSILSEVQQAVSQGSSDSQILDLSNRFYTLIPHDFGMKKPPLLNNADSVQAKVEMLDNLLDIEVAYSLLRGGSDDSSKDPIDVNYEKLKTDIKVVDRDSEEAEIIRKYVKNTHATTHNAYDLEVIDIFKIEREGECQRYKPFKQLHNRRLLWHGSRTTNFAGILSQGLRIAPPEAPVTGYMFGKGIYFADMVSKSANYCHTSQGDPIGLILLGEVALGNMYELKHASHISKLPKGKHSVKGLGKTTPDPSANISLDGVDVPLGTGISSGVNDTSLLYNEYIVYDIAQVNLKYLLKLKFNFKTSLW

As to `CCc1ccc(C2CC(=O)N(C3CCN(c4ccc(C(=O)NC)nc4)CC3)C2)[nH]c1=O` (racemic) [Compound 406rac], in test [1] (setting [4]), the IC50 was below 10 nM. Moreover, the Selectivity entry in test [2] (probe displacement HTRF) was “+++ (+++ indicate a value of at least 100)”. For the same molecule, the results for the Kd in test [2] (setting [5]) and in test [3] (probe displacement HTRF) were below 10 nM and above 10000 nM, respectively.
In the case of `CNC(=O)c1ccc(N2CCC(N3CCCC(c4ccc(CC(F)(F)F)c(=O)[nH]4)C3)CC2)cn1` (single isomer, unassigned) [Compound 169b], in test [1] (setting [6]), the IC50 is below 10 nM. Further, the Selectivity result in test [2] (probe displacement HTRF) is listed as “+++ (+++ indicate a value of at least 100)”. For the same molecule, the figures for the Kd in test [2] (setting [7]) and in test [3] (PARP2 probe displacement HTRF) were 10 to 100 nM and above 10000 nM, respectively.
Take `CCc1ccc(C2CCN(C3CCN(c4cnc(C(=O)NC5CC5)c(F)c4)CC3)C2)[nH]c1=O` (single isomer, unassigned) [Compound 408a]: the IC50 in test [1] (setting [4]) was below 10 nM. Besides, the Selectivity result in test [2] (probe displacement HTRF) is listed as “+++ (+++ indicate a value of at least 100)”. In addition, the Kd in test [2] (setting [5]) was below 10 nM; in test [3] (probe displacement HTRF), 100 to 1000 nM.
Turning to `CNC(=O)c1ccc(N2CCC(N3CCC(c4nc5[nH]nc(C(F)(F)F)c5c(=O)[nH]4)C3)CC2)cn1` (single isomer, unassigned) [Compound 162b, N-methyl-5-(4-(3-(4-oxo-3-(trifluoromethyl)-4,5-dihydro-1H-pyrazolo[3,4-d]pyrimidin-6-yl)pyrrolidin-1-yl)piperidin-1-yl)picolinamide], the IC50 in test [1] (setting [6]) was below 10 nM. The Kd in test [2] (setting [8]) is below 10 nM; in test [3] (PARP2 probe displacement HTRF), 10 to 100 nM. Moreover, in test [2] (probe displacement HTRF), the Selectivity entry was “++ (++ indicates a value of 50 to less than 100)”.
With `CCc1nc(C(=O)NC)ccc1N1CCC(N2CCC(c3nc4ccccc4c(=O)[nH]3)C2)CC1` (single isomer, unassigned) [Compound 118b], in test [1] (setting [6]), the IC50 lay in the range of 10 to 100 nM. Moreover, the Selectivity result in test [2] (probe displacement HTRF) was “++ (++ indicates a value of 50 to less than 100)”. The values for the Kd in test [2] (setting [7]) and in test [3] (PARP2 probe displacement HTRF) were 10 to 100 nM and above 10000 nM, respectively.
In the case of `CNC(=O)c1ccc(N2CCC(N3CCCC(c4nc5c(F)cccc5c(=O)[nH]4)C3)CC2)cn1` (single isomer, unassigned) [Compound 114b], the IC50 in test [1] (setting [6]) was in the range of 100 to 1000 nM. The Selectivity entry in test [2] (probe displacement HTRF) is on record as “+ (+ indicates a value of 10 to less than 50)”. Also, the results for the Kd in test [2] (setting [7]) and in test [3] (PARP2 probe displacement HTRF) were 100 to 1000 nM and 1000 to 10000 nM, respectively.
Regarding `CNC(=O)c1ccc(N2CCC(C(=O)N3CCC(c4ncc(C(F)(F)F)c(=O)[nH]4)CC3)CC2)cn1` [Compound 59], the IC50 in test [1] (setting [6]) lay in the range of 1000 to 10000 nM. Besides, the Kd in test [2] (setting [8]) is 100 to 1000 nM; in test [3] (PARP2 probe displacement HTRF) it was above 10000 nM. In addition, the Selectivity result in test [2] (probe displacement HTRF) is “− (− indicates a value of less than 10)”.
Consider `CS(=O)(=O)Nc1ccc(N2CCC(N3CCC(c4cc5ccccc5c(=O)[nH]4)C3)CC2)cc1` (single isomer, unassigned) [Compound 251a], for which, in test [1] (setting [4]), the IC50 lay within 100 to 1000 nM. Also, the Selectivity result in test [2] (probe displacement HTRF) is listed as “− (− indicates a value of less than 10)”. Moreover, the figures for the Kd in test [2] (setting [5]) and in test [3] (probe displacement HTRF) were 100 to 1000 nM and 1000 to 10000 nM, respectively.
As to `CNC(=O)c1ncc(N2CCC(N3CCC(c4cc5ccc(F)cc5c(=O)[nH]4)C3)CC2)c(Cl)n1` (racemic) [Compound 400rac], the IC50 in test [1] (setting [4]) is below 10 nM. Further, in test [2] (probe displacement HTRF), the Selectivity result is given as “+++ (+++ indicate a value of at least 100)”. Further, the Kd is below 10 nM in test [2] (setting [5]) and 100 to 1000 nM in test [3] (probe displacement HTRF).
As for `CNC(=O)c1ccc(N2CCC(N3CCC(c4[nH]c(=O)c5cc(F)ccc5c4F)C3)CC2)cn1` (single isomer, unassigned) [Compound 370b], the IC50 in test [1] (setting [4]) is below 10 nM. In addition, the Selectivity entry in test [2] (probe displacement HTRF) is recorded as “++ (++ indicates a value of 50 to less than 100)”. The Kd in test [2] (setting [5]) is below 10 nM; in test [3] (probe displacement HTRF), 10 to 100 nM.
Regarding `CNC(=O)c1cc(C)c(N2CCC(N3CCC(c4cc5ccccc5c(=O)[nH]4)C3)CC2)cn1` (racemic) [Compound 195rac], the half-maximal inhibitory concentration (IC50) in test [1] (setting [6]) was below 10 nM. In addition, the Selectivity result in test [2] (probe displacement HTRF) is “+++ (+++ indicate a value of at least 100)”. The Kd in test [2] (setting [7]) was below 10 nM; in test [3] (PARP2 probe displacement HTRF), 100 to 1000 nM.

(Values after patent publication US20250152585A1, “PHARMACEUTICAL COMPOUND” (Duke Street Bio Limited, priority 2022, published 2025).)
